The text below walks through data of US12521398B2, “Composition for treating synucleinopathies” (STANDIGM INC., priority 2019, dated 2026).

Format in all cases: cell-based
The target of one data set is T1, α-synuclein (Homo sapiens, UniProt P37840).
T1 construct: expressed in transfected cells; host or cells: SH-SY5Y
Put plainly: Dual chamber assay, cell-to-cell transmission of α-synuclein in SH-SY5Y cells. As to conditions: 12 hours. The method, then:
A slide glass was included in the plate to stain the cells after the cell culture.
In an insert well of the 12-well plate as the apical chamber, an SH-SY5Y cell line in which α-synuclein was over-expressed was seeded at a density of 4×10^4 cells/well, and in the 12-well plate as the basal chamber, an SH-SY5Y cell line in which α-synuclein was not over-expressed was seeded at a density of 4×10^4 cells/well and they were incubated at a constant temperature. The next day, the insert well was transferred to a place where the 12-well plate was placed to form a dual chamber. Thereafter, the chamber was treated with DMSO or 5 μM efavirenz and incubated at a constant temperature for 12 hours. The SH-SY5Y cells in the plate in which the chamber was treated with DMSO were used as the control. Then, the SH-SY5Y cells in the plate were subjected to immunostaining and observed using a confocal microscope. During the immunostaining, α-synuclein was stained red, and the nuclei were stained blue. Also, fluorescence intensities of α-synuclein in the control and the cells treated with efavirenz were compared. A scale bar represents 20 μm. **P<0.01, ***P<0.001 against the control. […] Also, when the fluorescence intensities of the immunostained α-synuclein were compared, the fluorescence intensity in the cells treated with efavirenz decreased by approximately 80%, compared with that of the control (FIG. 2A).
In the case of the naphazoline-administered group, the cells treated with PBS were used as the control, and the cells treated with DMSO were used as the control in the case of the chlorhexidine- and tenofovir-administered groups. A scale bar represents 20 μm. **P<0.01 and ***P<0.001 against the control.

For a further data set, the target named is T2, A53T α-synuclein (Homo sapiens, UniProt P37840, A53T).
T2 construct: expressed in transfected cells; host or cells: SH-SY5Y (lentiviral transduction)
The data set is described as follows: Co-culture assay of A53T EGFP and A53T mcherry SH-SY5Y cells, aggregation of α-synuclein. The method, then: A degeneration process of converting monomeric α-synuclein into aggregates may mainly cause Parkinson's disease. Therefore, it was tested whether efavirenz is involved in the propagation process of the over-expressed monomeric A53T α-synuclein to adjacent cells, which is converting the over-expressed monomeric α-synuclein into aggregates.
For this purpose, an SH-SY5Y cell line (A53T EGFP cells) in which EGFP-labeled A53T α-synuclein was over-expressed and an SH-SY5Y cell line (A53T mcherry cells) in which mcherry-labeled A53T α-synuclein was over-expressed were prepared using a lentivirus. Thereafter, the A53T EGFP cells and the A53T mcherry cells were mixed to prepare co-cultured cells. Then, the co-cultured cells were treated with DMSO or 5 μM efavirenz, and co-cultured in the presence of 50 μM retinoic acid (RA) for 5 days. The co-cultured cells treated with DMSO were used as the control. At 5 days of the co-culturing, the aggregated α-synuclein (inclusion body-positive cells) was confirmed using a confocal microscope (the rightmost image of fluorescence images shown in FIG. 3A). Also, each of a combined distribution of EGFP and mcherry in the A53T EGFP cells and a combined distribution of mcherry and EGFP in the A53T mcherry cells was confirmed. […] In the rightmost image of the fluorescence images of FIG. 3A, dots indicated in yellow represent the combining of mcherry and EGFP signals in the cells. In the rightmost image of the fluorescence images of FIG. 3A (a diagram in which EGFP+mcherry signals were combined), the dots indicated in yellow were counted to calculate ratios of the dots to the whole cells, and then plotted on a bar graph. A scale bar represents 20 μm, and ***P<0.001 against the control.
Also, to test whether chlorhexidine, naphazoline, and tenofovir were involved in the process of moving the over-expressed monomeric A53T α-synuclein to adjacent cells to convert the over-expressed monomeric α-synuclein into aggregates, the cells were treated with either 10 μM chlorhexidine, 100 μM naphazoline, or 20 μM tenofovir, and then tested in the same manner as in the experiment for efavirenz. However, in the case of the naphazoline-administered group, the cells treated with PBS were used as the control, and the cells treated with DMSO were also used as the control in the case of the chlorhexidine- and tenofovir-administered groups. A scale bar represents 20 μm.

The subject of the next data set is SH-SY5Y cell line. Put plainly: Cytotoxicity, cell viability by MTT test. The conditions noted are these: 24 hours. The method, then: An SH-SY5Y cell line (ATCC) was used to confirm the cytotoxicity of efavirenz.
The SH-SY5Y cell line was seeded in a 96-well plate, cultured, treated with an increasing concentration (0, 5, 25 μM) of efavirenz, and then incubated at a constant temperature for 24 hours. Thereafter, cell viability was measured using an MTT test method. Cells treated with 0 μM efavirenz were used as the control. **P<0.01 against the control.
Also, in the next experiment, the cytotoxicities of chlorhexidine (N,N″″-1,6-hexanediylbis[N′-(4-chlorophenyl)(imidocarbon imidic diamide)]), naphazoline(2-(1-naphthylmethyl)-4,5-dihydro-1H-imidazole), and tenofovir (({[(2R)-1-(6-amino-9H-purin-9-yl)-[…]]oxy}methyl)phosphonic acid) to be used as reference drugs were tested in the same manner as in the cytotoxicity experiment of efavirenz. Cells were treated with chlorhexidine at a concentration of 0, 10, 100 μM, treated with naphazoline at a concentration of 0, 100, 200 μM, and treated with tenofovir at a concentration of 0, 20, 30 μM, and cells treated with each control drug at a concentration of 0 μM was used as the control. *P<0.05, ***P<0.001 against the control.
In general terms: Formazan colour is commonly taken as a measure of viable cells.

Setting [1] is: 10 μM, 5 days co-culture, DMSO control.
Setting [2] is: 20 μM, 5 days co-culture, DMSO control.

Read-outs that look alike come from different tables or passages of the source.

As for `c1ccc2c(CC3=NCCN3)cccc2c1` [naphazoline, 2-(1-naphthylmethyl)-4,5-dihydro-1H-imidazole], the “cell-to-cell transmission of α-synuclein compared with the control (fluorescence image)” value on α-synuclein (100 μM, PBS control) is “remarkably increased”. Moreover, at A53T α-synuclein, the “distribution of α-synuclein compared with the control cells” value is reported as “increased or were not significantly different”. The “amount of aggregated α-synuclein compared with the control cells” value (from here on “amount … compared with the control cells”) on A53T α-synuclein (100 μM, 5 days co-culture, PBS control) is “increased or were not significantly different”.

On to `O=C1Nc2ccc(Cl)cc2[C@@](C#CC2CC2)(C(F)(F)F)O1` [efavirenz, (4S)-6-chloro-(cyclopropylethynyl)-1,4-dihydro-4-(trifluoromethyl)-2H-3,1-benzoxazin-2-one], for which the “decrease of fluorescence intensity of immunostained α-synuclein compared with the control” value at α-synuclein (5 μM, DMSO control) is “approximately 80%”.

Take `[H]/N=C(\N/C(=N/[H])NCCCCCCNC(=N)NC(=N)Nc1ccc(Cl)cc1)Nc1ccc(Cl)cc1` [chlorhexidine, N,N″″-1,6-hexanediylbis[N′-(4-chlorophenyl)(imidocarbonimidic diamide)]]: on α-synuclein (10 μM, DMSO control), the “cell-to-cell transmission of α-synuclein compared with the control (fluorescence image)” value is listed as “remarkably increased”. Further, at A53T α-synuclein (setting [1]), the “amount … compared with the control cells” value was “increased or were not significantly different” and the “distribution of α-synuclein compared with the control cells” value is recorded as “increased or were not significantly different”.

For `C[C@H](Cn1cnc2c(N)ncnc21)OCP(=O)(O)O` [tenofovir], the “cell viability compared with the control” value in the data set on SH-SY5Y cell line (20 μM) is on record as “not changed significantly”. In addition, the “cell viability compared with the control” value with SH-SY5Y cell line (30 μM) is “significant decrease”. On α-synuclein (20 μM, DMSO control), the “cell-to-cell transmission of α-synuclein compared with the control (fluorescence image)” value was “remarkably increased”. For the same compound, on A53T α-synuclein (setting [2]), the “amount … compared with the control cells” value is given as “increased or were not significantly different” and the “distribution of α-synuclein compared with the control cells” value is “increased or were not significantly different”.
